A word on the MIC: it is the smallest concentration in the dilution series that meets the test's criterion for growth inhibition. A lower MIC goes with inhibition by little substance. As usually defined, the IC50 is the concentration at which inhibition is half-maximal. Higher therefore signals a need for much substance.

The source of these data is ChEMBL document CHEMBL2331525, “Nudibaccatumone, a trimer comprising a phenylpropanoid and two sesquiterpene moieties from Piper nudibaccatum” (J Nat Prod, 2013).

Activity calls are given as the source filed them.

Experiment [1] deals with Staphylococcus aureus. Put plainly: Antimicrobial activity against Staphylococcus aureus by microdilution method. It counts as functional, organism-based. For orientation: Broth dilution looks for growth in wells or tubes with falling amounts of substance.
In experiment [2] the test system is Escherichia coli. Put plainly: Antimicrobial activity against Escherichia coli by microdilution method. The experiment is classed as functional, organism-based.
Experiment [3] deals with Staphylococcus aureus. The experiment can be described thus: Antimicrobial activity against Staphylococcus aureus at 100 uM by microdilution method. It counts as functional, organism-based.
Experiment [4] has as its system Escherichia coli. The experiment can be described thus: Antimicrobial activity against Escherichia coli at 100 uM by microdilution method. The experiment is classed as functional, organism-based.
In experiment [5] the test system is A549. The experiment can be described thus: Cytotoxicity against human A549 cells at 100 uM by SRB assay. The experiment is classed as functional, cell-based. In general terms: The SRB assay estimates cell density from bound dye.
For experiment [6], the system named is K562. The experiment can be described thus: Cytotoxicity against human K562 cells at 100 uM by MTT assay. The experiment is classed as functional, cell-based. (In general: Tetrazolium assays rely on reduction of a dye to a coloured formazan, in cell work by metabolically active cells.)
The subject of experiment [7] is Candida albicans. The experiment can be described thus: Antimicrobial activity against Candida albicans at 100 uM by microdilution method. It counts as functional, organism-based.
The subject of experiment [8] is Candida albicans. The experiment can be described thus: Antimicrobial activity against Candida albicans by microdilution method. The experiment is classed as functional, organism-based.
Experiment [9] concerns K562. The experiment can be described thus: Cytotoxicity against human K562 cells by MTT assay. The experiment is classed as functional, cell-based.
Experiment [10] relates to A549. The experiment can be described thus: Cytotoxicity against human A549 cells by SRB assay. The experiment is classed as functional, cell-based.

In the case of GENTAMICIN, the MIC against Staphylococcus aureus [1] is 0.05 µg/mL; against Escherichia coli [2], 1.2 µg/mL.
In the case of `C/C1=C\CC[C@]2(C)[C@@H]3C(=O)C(=O)[C@@H](C=C3/C=C/C[C@@]3(C)CC[C@H]4C3=C[C@H](C(C)(C)O)CC[C@H]4C)[C@H]2[C@H]2[C@H](CC1)C2(C)C`, the result in the experiment with Staphylococcus aureus [3], in the experiment with Escherichia coli [4], in the experiment with A549 [5], with K562 [6] and with Candida albicans [7] was inactive.
The compound NYSTATIN came in with an MIC against Candida albicans [8] of 1 µg/mL.
`COc1cccc2c1C(=O)c1c(O)c3c(c(O)c1C2=O)C[C@@](O)(C(=O)CO)C[C@@H]3O[C@H]1C[C@H](N)[C@H](O)[C@H](C)O1` [DOXORUBICIN]: the figures for the IC50 in the experiment with K562 [9] and in the experiment on A549 [10] were 280 nM and 49 nM, respectively.
